Tested on: Fmoc-FRGD-PEGA surface tethered peptide (Fmoc-F↓RGD bond)
Assay: Enzymatic hydrolysis of PEGA surface tethered peptides analysed by HPLC
Assay type: biochemical
Method: Three proteolytic enzymes, chymotrypsin, thermolysin and proteinase K, that are known to cleave peptide bonds involving F amino acids in the P1 position were tested for their ability to selectively hydrolyse Fmoc-F↓RGD bond^15. […] Surfaces were incubated at 37° C. for 2 hours in enzyme solution (concentrations and activities are shown in Table 1) in phosphate buffer and the cleaved products were analysed by HPLC.
Surfaces were rinsed in a known volume (at least 4 ml) of a 50:50 mixture of acetonitrile (ACN) and water. The rinsing solution was kept and added to the enzyme solution that the surface was in. 1 ml of this solution was placed into an HPLC autosampler vial. The HPLC machine (manufactured by Dionex; California, USA) consisted of a P.680 HPLC pump joined to an ASI-100 Automated Sample Injector with a Dionex UVD17OU detector. The column was an EC 250/4.6 Nucleosil 100-5 C18, with an internal diameter of 4.6 mm and a column length of 250 mm containing particles of 5 μm in diameter. 100 μl was injected into the HPLC column at the start of each run and a buffer gradient run through the column, buffer A was 99.9% water and 0.1% TFA, buffer B was 99.9% ACN and 0.1% TFA. For quantification, three samples of each surface were produced and repeated three times.

[1] = 37° C., 2 hours in enzyme solution, 100% = 4.08 nmol maximum Fmoc-peptide hydrolysed, n=9

Chymotrypsin
Fmoc-F-OH (%) [1]: 42 ± 1.8%
Fmoc-FR-OH (%) [1]: 7.5 ± 1.4%
cleavage and selectivity for Fmoc-F↓RGD versus Fmoc-FR↓GD (HPLC): performing best

Source: patent US20100143438A1, “BIOMOLECULES” (University of Strathclyde, priority 2006, published 2010)
